# Measurements reported in US12202835B2, “Substituted aromatic ring-linked dioxinoquinazolines and dioxinoquinolines as kinase inhibitors” (BEIJING SCITECH-MQ PHARMACEUTICALS LIMITED, priority 2018, dated 2025).
# Experiments:
# MER kinase = MER kinase (Homo sapiens (Human), UniProt Q12866); experiment: Assay of small molecular compounds for inhibiting the activity of MER kinase (LANCE TR-FRET); assay type: biochemical
# Procedure, shortened: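 MER kinase preincubated 5 min at RT with compound (11 points, 0.042-2500 nM final), then ULight-poly GT and ATP added (4× stocks 200 nM and 20 μM) for 60 min at RT, 1% DMSO. Phosphorylation detected by LANCE TR-FRET; IC50 from % inhibition versus controls.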
# c-MET kinase = c-MET kinase (Homo sapiens (Human), UniProt P08581); experiment: Assay of small molecular compounds for inhibiting the activity of c-MET kinase (LANCE TR-FRET); assay type: biochemical; conditions: read-out: CMET IC50
# Procedure, shortened: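 LANCE TR-FRET assay with c-MET at 1 nM final after a 5 min room-temperature preincubation with compound (11-point, 3-fold series, 2500–0.042 nM final, 4% DMSO). ULight-JAK-1 (Tyr1023) peptide (100 nM final) and ATP (10 μM final) reacted 60 min in the dark. Inhibition was taken relative to controls, then IC50 fitted.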
# Ba/F3 LMNA-NTRK1 cells = experiment: Assay for inhibiting the proliferation of Ba/F3 LMNA-NTRK1 cells (CCK-8); assay type: cell-based; conditions: Mus musculus, BaF3
# Protocol: In particular, the method of the assay of small molecular compounds for inhibiting cell proliferation is as follows: • 1. Cells cultured to a logarithmic growth phase (adherent cells need to be digested with trypsin and neutralized) were taken, pipetted evenly, transferred to a 15 mL centrifuge tube, and centrifuged at 1000 rpm at room temperature for 4 minutes; • 2. The supernatant was discarded; 5 mL of complete medium was added and pipetted evenly; 10 μL of cell suspension was taken out, mixed well with 10 μL of 0.4% trypan blue, and counted under a cell counter; the proportion of living cells was ensured to be above 90%; • 3. 80 μL of cell suspension per well was seeded into a 96-well plate according to the conditions shown in the attached table, and cultured overnight; in the outer 36 wells of the 96-well plate, no cells were added but only sterile water was added; only the inner 60 wells were used for cell assay and control; • 4. […] 20 μL of the corresponding compounds with different concentration gradients were added to each well of assay wells of the 96-well plate; 20 μL of complete medium was added to positive and negative control wells and shaken well; and the final concentration of DMSO in each well was 0.25%; • 6. After 72 hours of incubation, 10 μL of CCK-8 reagent was added to each well and further incubated at 37° C. for 1-2 hours; and the OD value was read at 450 nm; • 7. Cell survival rate (%)=[(As−Ab)/(Ac−Ab)]*100% • As: Assay well (medium containing cells, CCK-8, compound), • Ac: Control well (medium containing cells, CCK-8), • Ab: Blank well (CCK-8, medium without cell and compound), • 8. The values were imported into Graphpad Prism 5 software for IC50 calculation.
# TRKA kinase = TRKA kinase (Homo sapiens (Human), UniProt P04629); experiment: Assay of small molecular compounds for inhibiting the activity of TRKA kinase (LANCE TR-FRET); assay type: biochemical
# Procedure, shortened: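 LANCE TR-FRET with ULight-TK peptide; compounds pre-incubated 5 min with TRKA (2× solution 2 nM), then substrate/ATP added (4× mix: 400 nM peptide, 40 μM ATP). Reaction 60 min at room temperature in dark, 1% DMSO final; stopped, detection developed 60 min, signal read.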
# Ba/F3-AXL cells = experiment: Assay for inhibiting the proliferation of Ba/F3-AXL cells (CCK-8); assay type: cell-based; conditions: 72 hours of incubation, medium with 100 ng/mL hGas6, CCK-8
# Protocol: The values were then imported into Graphpad Prism 5 software for curve fitting, and IC50 was calculated.
# VEGFR-2 kinase = VEGFR-2 kinase (Homo sapiens (Human), UniProt P35968); experiment: Assay of small molecular compounds for inhibiting the activity of VEGFR-2 kinase (LANCE TR-FRET); assay type: biochemical; conditions: read-out: VEGFR2 IC50
# Protocol: The assay is based on the LANCE TR-FRET technology of Perkin Elmer Inc., and the assay method is as follows: • 1. Dilution of compounds: a total of 11 concentrations were obtained using a 3-fold gradient dilution from the highest concentration of 2500 nM (the maximum final concentration of the drug used in this assay was 2500 nM, and the minimum final concentration was 0.042 nM). • 2. 2.5 μL of the gradient-diluted compounds were taken with a transfer pipette to a 384-well plate. • 3. Addition of enzyme: 5 μL of 2×VEGFR2 kinase solution (with a concentration of 0.5 nM) was taken with a transfer pipette to the corresponding reaction well of the 384-well plate, mixed well and pre-reacted at room temperature for 30 minutes. • 4. 2.5 μL 4× Ultra ULight™-JAK-1 (Tyr1023) Peptide (with a concentration of 200 nM)/ATP (with a concentration of 40 μM) mixture was taken with a transfer pipette to the corresponding reaction well of the 384-well plate. • 5. Negative control: 2.5 μL/well 4× substrate/ATP mixture and 7.5 μL 1× Kinase Assay Buffer were added to the wells of the 384-well plate. • 6. Positive control: 2.5 μL/well 4× substrate/ATP mixture, 2.5 μL/well 1× Kinase Assay Buffer containing 16% DMSO, and 5 μL/well 2×VEGFR-2 kinase solution were added to the 384-well plate. The final concentration of DMSO in the reaction system was 4%. • 7. The mixture was mixed well and then centrifuged and reacted at room temperature in dark for 60 min. • 8. Termination of the enzymatic reaction: 5 μL of 4× stop solution was taken with a transfer pipette to the wells of the 384-well plate, mixed and then centrifuged, and reacted at room temperature for 5 min. • 9. Development of the reaction: 5 μL of 4× detection solution was taken with a transfer pipette to the wells of the 384-well plate for color development, and the mixture was mixed and then centrifuged and reacted at room temperature for 60 min. • 10. The 384-well plate was placed into the Envision plate reader and the signal was detected using the appropriate program. • 11. Analysis and processing of the raw data: The drug concentrations and the corresponding inhibition rates were input into GraphPad Prism5 for calculation, and the inhibition rate of the compounds were calculated as follows: inhibition rate (%)=(reading of positive well−reading of experimental well)/(reading of positive control well−reading of negative control well)×100%. Processing with GraphPad Prism5 software yielded the corresponding IC50 values (the concentration of the compound at which 50% of the highest inhibition of the enzyme is achieved).
# Sequence of MER kinase (Q12866 21-999): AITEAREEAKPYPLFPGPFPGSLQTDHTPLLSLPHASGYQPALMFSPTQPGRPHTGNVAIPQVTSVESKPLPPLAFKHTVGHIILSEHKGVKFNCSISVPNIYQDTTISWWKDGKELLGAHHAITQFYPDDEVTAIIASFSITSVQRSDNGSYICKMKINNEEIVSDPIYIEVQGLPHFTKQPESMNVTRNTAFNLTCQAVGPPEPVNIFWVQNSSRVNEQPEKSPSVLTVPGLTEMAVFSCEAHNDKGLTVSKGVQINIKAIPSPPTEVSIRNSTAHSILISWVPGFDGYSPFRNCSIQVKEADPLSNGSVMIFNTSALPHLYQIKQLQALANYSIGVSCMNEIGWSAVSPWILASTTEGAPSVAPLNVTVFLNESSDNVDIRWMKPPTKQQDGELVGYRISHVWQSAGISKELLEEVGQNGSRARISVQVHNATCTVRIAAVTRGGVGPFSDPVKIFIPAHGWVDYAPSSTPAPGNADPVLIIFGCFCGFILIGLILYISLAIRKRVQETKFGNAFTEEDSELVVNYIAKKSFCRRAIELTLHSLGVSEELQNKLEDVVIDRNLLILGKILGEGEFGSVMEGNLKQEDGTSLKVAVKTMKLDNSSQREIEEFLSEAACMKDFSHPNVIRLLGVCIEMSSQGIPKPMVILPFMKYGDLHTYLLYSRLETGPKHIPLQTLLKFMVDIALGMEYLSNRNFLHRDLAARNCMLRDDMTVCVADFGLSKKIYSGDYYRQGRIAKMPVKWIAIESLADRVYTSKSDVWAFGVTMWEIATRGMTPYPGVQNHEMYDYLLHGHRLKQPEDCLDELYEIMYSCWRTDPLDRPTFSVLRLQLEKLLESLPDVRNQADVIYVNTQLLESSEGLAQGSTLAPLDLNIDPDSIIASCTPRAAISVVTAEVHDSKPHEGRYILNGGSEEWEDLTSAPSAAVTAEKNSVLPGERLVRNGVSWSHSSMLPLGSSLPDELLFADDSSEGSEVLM
# Sequence of TRKA kinase (P04629 33-796): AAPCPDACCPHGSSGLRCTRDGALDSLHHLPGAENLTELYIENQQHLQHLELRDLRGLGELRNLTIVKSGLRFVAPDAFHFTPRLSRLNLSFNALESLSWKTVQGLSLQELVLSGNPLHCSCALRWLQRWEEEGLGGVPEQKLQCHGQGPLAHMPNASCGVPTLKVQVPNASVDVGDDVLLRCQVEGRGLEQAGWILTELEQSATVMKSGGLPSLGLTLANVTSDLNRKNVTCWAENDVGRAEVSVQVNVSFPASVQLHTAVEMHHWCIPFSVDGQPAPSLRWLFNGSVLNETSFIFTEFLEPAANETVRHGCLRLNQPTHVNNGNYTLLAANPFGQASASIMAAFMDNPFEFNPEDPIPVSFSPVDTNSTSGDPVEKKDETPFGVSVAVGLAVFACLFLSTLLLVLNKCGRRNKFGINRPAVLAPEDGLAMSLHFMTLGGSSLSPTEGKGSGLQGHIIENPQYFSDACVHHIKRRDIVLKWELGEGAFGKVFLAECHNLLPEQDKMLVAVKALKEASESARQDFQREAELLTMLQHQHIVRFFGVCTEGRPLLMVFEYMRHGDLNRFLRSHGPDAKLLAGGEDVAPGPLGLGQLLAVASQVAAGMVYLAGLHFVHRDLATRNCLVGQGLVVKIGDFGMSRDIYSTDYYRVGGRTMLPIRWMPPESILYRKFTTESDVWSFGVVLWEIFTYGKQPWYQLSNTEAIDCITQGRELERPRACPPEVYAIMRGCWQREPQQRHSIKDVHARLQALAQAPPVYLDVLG
# Sequence of VEGFR-2 kinase (P35968 20-1356): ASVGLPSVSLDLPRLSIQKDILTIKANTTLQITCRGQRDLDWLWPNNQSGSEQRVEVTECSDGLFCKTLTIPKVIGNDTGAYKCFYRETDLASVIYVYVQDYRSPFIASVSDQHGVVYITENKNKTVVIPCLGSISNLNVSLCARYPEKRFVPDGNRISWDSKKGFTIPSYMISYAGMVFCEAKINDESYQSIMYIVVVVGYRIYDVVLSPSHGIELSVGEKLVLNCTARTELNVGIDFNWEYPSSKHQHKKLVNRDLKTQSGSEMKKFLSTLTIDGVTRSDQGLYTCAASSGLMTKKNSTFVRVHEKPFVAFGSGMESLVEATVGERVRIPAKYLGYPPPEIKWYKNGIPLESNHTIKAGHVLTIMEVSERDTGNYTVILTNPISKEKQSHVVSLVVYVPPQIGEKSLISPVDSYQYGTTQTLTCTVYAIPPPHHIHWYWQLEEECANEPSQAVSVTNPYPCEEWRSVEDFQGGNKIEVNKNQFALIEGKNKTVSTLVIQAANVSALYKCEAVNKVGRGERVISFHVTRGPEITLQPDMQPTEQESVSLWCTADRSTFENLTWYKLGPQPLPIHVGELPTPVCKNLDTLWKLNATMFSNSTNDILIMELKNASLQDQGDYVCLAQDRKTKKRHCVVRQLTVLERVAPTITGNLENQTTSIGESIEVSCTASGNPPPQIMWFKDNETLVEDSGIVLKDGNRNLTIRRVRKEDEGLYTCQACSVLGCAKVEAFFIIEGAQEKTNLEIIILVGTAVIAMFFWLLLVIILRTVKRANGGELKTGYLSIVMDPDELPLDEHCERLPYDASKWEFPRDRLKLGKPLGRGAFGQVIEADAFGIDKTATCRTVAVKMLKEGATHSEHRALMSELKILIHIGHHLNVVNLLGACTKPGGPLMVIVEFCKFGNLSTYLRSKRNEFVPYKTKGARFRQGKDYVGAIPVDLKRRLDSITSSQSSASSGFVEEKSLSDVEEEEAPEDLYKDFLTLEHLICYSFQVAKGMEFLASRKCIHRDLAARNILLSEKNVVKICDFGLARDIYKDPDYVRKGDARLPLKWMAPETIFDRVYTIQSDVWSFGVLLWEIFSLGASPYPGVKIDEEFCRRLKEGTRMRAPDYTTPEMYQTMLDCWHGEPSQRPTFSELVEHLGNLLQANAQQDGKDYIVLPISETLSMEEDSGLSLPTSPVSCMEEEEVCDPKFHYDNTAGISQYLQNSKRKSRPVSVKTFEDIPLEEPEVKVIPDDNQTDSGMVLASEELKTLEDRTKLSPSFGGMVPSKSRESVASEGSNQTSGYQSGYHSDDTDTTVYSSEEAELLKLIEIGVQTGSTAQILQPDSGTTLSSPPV
# Sequence of c-MET kinase (P08581 25-1390): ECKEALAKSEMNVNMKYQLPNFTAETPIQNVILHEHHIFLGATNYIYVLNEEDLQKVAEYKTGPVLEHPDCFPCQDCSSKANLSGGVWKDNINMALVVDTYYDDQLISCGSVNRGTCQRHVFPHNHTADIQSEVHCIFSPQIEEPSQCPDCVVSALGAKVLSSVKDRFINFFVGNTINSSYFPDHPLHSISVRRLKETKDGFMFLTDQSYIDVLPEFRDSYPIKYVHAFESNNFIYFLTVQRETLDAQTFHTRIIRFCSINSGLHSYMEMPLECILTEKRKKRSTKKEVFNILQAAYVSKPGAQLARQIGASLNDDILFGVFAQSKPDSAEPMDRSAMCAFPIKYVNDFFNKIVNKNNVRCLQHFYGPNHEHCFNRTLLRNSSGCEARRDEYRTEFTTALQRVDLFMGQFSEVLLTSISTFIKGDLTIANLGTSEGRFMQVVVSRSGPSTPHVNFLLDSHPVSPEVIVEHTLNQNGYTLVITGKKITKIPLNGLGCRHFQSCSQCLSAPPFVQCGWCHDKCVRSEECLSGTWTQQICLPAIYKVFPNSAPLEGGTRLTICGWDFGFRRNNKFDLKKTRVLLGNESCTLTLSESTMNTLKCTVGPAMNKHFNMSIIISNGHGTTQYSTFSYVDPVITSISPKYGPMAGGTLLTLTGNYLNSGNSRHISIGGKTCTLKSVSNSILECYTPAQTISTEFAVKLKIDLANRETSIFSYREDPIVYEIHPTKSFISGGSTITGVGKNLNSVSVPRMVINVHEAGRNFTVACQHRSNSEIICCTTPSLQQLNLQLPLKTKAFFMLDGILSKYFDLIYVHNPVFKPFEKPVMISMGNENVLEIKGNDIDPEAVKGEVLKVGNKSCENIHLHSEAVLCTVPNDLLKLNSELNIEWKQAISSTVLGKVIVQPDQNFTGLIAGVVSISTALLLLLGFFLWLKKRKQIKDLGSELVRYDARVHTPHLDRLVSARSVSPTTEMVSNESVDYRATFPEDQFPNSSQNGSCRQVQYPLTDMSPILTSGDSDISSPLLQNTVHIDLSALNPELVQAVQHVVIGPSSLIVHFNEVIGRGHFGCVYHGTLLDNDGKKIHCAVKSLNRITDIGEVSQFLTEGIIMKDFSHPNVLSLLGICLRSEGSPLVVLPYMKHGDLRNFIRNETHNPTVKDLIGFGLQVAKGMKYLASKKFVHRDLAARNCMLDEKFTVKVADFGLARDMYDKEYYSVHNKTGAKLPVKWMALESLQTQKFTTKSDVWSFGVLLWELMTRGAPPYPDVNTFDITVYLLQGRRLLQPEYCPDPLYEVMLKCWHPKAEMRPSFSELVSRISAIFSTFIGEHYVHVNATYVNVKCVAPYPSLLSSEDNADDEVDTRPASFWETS
SMILES,IC50 (MER kinase),IC50 (c-MET kinase),IC50 (Ba/F3 LMNA-NTRK1 cells),IC50 (TRKA kinase),IC50 (Ba/F3-AXL cells),IC50 (VEGFR-2 kinase)
"Cc1cc(F)ccc1-n1ccc(C(=O)Nc2ccc(Oc3ccnc4cc(OCCCN5CCOCC5)c5c(c34)OCCO5)c(F)c2)n1 [Example 26, 1-(4-fluoro-2-methylphenyl)-N-(3-fluoro-4-((5-(3-morpholinopropoxy)-2,3-dihydro-[1,4]dioxino[2,3-f]quinolin-10-yl)oxy)phenyl)-1H-pyrazole-3-carboxamide]",50 to 500 nM,≤ 50 nM,< 50 nM,< 50 nM,< 50 nM,
"CCOc1cn(-c2ccc(F)cc2C)nc1C(=O)Nc1ccc(Oc2ccnc3cc(OCCCN4CCOCC4)c4c(c23)OCCO4)c(F)c1 [Example 28, 1-(4-fluoro-2-methylphenyl)-N-(3-fluoro-4-((5-(3-morpholinopropoxy)-2,3-dihydro-[1,4]dioxino[2,3-f]quinolin-10-yl)oxy)phenyl)-4-ethoxy-1H-pyrazole-3-carboxamide]",≤ 50 nM,≤ 50 nM,< 50 nM,< 50 nM,< 50 nM,
"CC(C)n1cc(C(=O)Nc2ccc(Oc3ccnc4cc(OCC#N)c5c(c34)OCCO5)c(F)c2)c(=O)n(-c2ccc(F)cc2)c1=O [Example 81, N-(3-fluoro-4-((5-(cyanomethoxy)-2,3-dihydro-[1,4]dioxino[2,3-f]quinolin-10-yl)oxy)phenyl)-3-(4-fluorophenyl)-1-isopropyl-2,4-dioxo-1,2,3,4-tetrahydropyrimidine-5-carboxamide]",≤ 50 nM,50 to 500 nM,,500 to 5000 nM,< 50 nM,
"CC(C)n1cc(C(=O)Nc2ccc(Oc3ccnc4cc(OCCCC#N)c5c(c34)OCCO5)c(F)c2)c(=O)n(-c2ccc(F)cc2)c1=O [Example 82, N-(3-fluoro-4-((5-(3-cyanopropoxy)-2,3-dihydro-[1,4]dioxino[2,3-f]quinolin-10-yl)oxy)phenyl)-3-(4-fluorophenyl)-1-isopropyl-2,4-dioxo-1,2,3,4-tetrahydropyrimidine-5-carboxamide]",≤ 50 nM,50 to 500 nM,,50 to 500 nM,< 50 nM,
"COc1cc2nccc(Oc3ccc(NC(=O)c4cn(C(C)C)c(=O)n(-c5cccc(F)c5)c4=O)cc3F)c2c2c1OCCO2 [Example 109, N-(3-fluoro-4-((5-methoxy-2,3-dihydro-[1,4]dioxino[2,3-f]quinolin-10-yl)oxy)phenyl)-3-(3-fluorophenyl)-1-isopropyl-2,4-dioxo-1,2,3,4-tetrahydropyrimidine-5-carboxamide]",≤ 50 nM,≤ 50 nM,,500 to 5000 nM,< 50 nM,
"CCOc1ccn(C2CCCCC2)c(=O)c1C(=O)Nc1ccc(Oc2ccnc3cc(OC)c4c(c23)OCCO4)c(F)c1 [Example 119, 1-cyclohexyl-4-ethoxy-N-(3-fluoro-4-((5-methoxy-2,3-dihydro-[1,4]dioxino[2,3-f]quinolin-1 0-yl)oxy)phenyl)-2-oxo-1,2-dihydropyridine-3-carboxamide]",500 to 5000 nM,,,> 5000 nM,,> 5000 nM
"N#CCCCOc1cc2nccc(Oc3ccc(NC(=O)c4cccn(-c5ccc(F)cc5)c4=O)c(Cl)c3)c2c2c1OCCO2 [Example 131, N-(2-chloro-4-((5-(3-cyanopropoxy)-2,3-dihydro-[1,4]dioxino[2,3-f]quinolin-10-yl)oxy)phenyl)-1-(4-fluorophenyl)-2-oxo-1,2-dihydropyridine-3-carboxamide]",50 to 500 nM,≤ 50 nM,< 50 nM,< 50 nM,,
"COc1ccn(-c2ccc(F)cc2)c(=O)c1C(=O)Nc1ccc(Oc2ccnc3cc(OCCCN4CCOCC4)c4c(c23)OCCO4)cc1Cl [Example 144, N-(2-chloro-4-((5-(3-morpholinopropoxy)-2,3-dihydro-[1,4]dioxino[2,3-f]quinolin-10-yl)oxy)phenyl)-1-(4-fluorophenyl)-4-methoxy-2-oxo-1,2-dihydropyridine-3-carboxamide]",,≤ 50 nM,< 50 nM,< 50 nM,,50 to 500 nM

# Continued, values first:
IC50 (MER kinase),IC50 (c-MET kinase),IC50 (Ba/F3 LMNA-NTRK1 cells),IC50 (TRKA kinase),IC50 (Ba/F3-AXL cells),IC50 (VEGFR-2 kinase),SMILES
50 to 500 nM,50 to 500 nM,< 50 nM,< 50 nM,,,"COc1cn(-c2ccc(F)cc2C)nc1C(=O)Nc1ccc(Oc2ccnc3cc(OC)c4c(c23)OCCO4)c(F)c1 [Example 24, 1-(4-fluoro-2-methylphenyl)-N-(3-fluoro-4-((5-methoxy-2,3-dihydro-[1,4]dioxino[2,3-f]quinolin-10-yl)oxy)phenyl)-4-methoxy-1H-pyrazole-3-carboxamide]"
,50 to 500 nM,< 50 nM,,< 50 nM,50 to 500 nM,"CC(C)n1cc(C(=O)Nc2ccc(Oc3ccnc4cc(OCCCCCCN(C)C)c5c(c34)OCCO5)c(F)c2)c(=O)n(-c2ccc(F)cc2)c1=O [Example 85, N-(3-fluoro-4-((5-((6-dimethylamino)hexyloxy)-2,3-dihydro-[1,4]dioxino[2,3-f]quinolin-10-yl)oxy)phenyl)-3-(4-fluorophenyl)-1-isopropyl-2,4-dioxo-1,2,3,4-tetrahydropyrimidine-5-carboxamide]"
≤ 50 nM,50 to 500 nM,,50 to 500 nM,< 50 nM,,"CCOc1cc2nccc(Oc3ccc(NC(=O)c4cn(C(C)C)c(=O)n(-c5ccc(F)cc5)c4=O)cc3F)c2c2c1OCCO2 [Example 87, N-(3-fluoro-4-((5-ethoxy-2,3-dihydro-[1,4]dioxino[2,3-f]quinolin-10-yl)oxy)phenyl)-3-(4-fluorophenyl)-1-isopropyl-2,4-dioxo-1,2,3,4-tetrahydropyrimidine-5-carboxamide]"
≤ 50 nM,,< 50 nM,< 50 nM,< 50 nM,> 5000 nM,"COc1cc2nccc(Oc3ccc(NC(=O)c4cccn(-c5ccc(F)cc5)c4=O)c(Cl)c3)c2c2c1OCCO2 [Example 123, N-(2-chloro-4-((5-methoxy-2,3-dihydro-[1,4]dioxino[2,3-f]quinolin-10-yl)oxy)phenyl)-1-(4-fluorophenyl)-2-oxo-1,2-dihydropyridine-3-carboxamide]"
